Test results reported in US11021455B2, “Brominated furanone derivative, method for preparing same, and pharmaceutical composition containing same as active ingredient” (SEOUL NATIONAL UNIVERSITY R&DB FOUNDATION, priority 2016, dated 2021).
Like-named read-outs stand apart in the source and are kept apart here.

Assays:
[1] = tested on: biofilms of F. nucleatum, givalis and T. forsythia; experiment: Biofilm morphology, confocal scanning laser microscope technique; type: cell-based; details: live/dead staining; FIG. 22
Description: (§1) Particularly, a sterilized cover glass slip (round shape with a radius of 12 mm) was placed on each well of a cell culture plate (24 well plate) by using a pincette. F. nucleatum A1-2 was added to cell culture medium (BHI medium+supplements) at the volume of 10% by the total volume.
(§2) The compounds of examples of the present invention were diluted to make the final concentration of each compound of 2 μM, 0.2 μM and 0.02 μM (BH1 medium: Brain Heart Infusion Medium, supplements: hemin (10 μg/ml) and vitamin K (0.2 μg/ml)).
(§3) The prepared culture solution was added to each well of the plate where the glass slip was placed, and the desired number of bacteria was inoculated into each well (F. nucleatum: 2×10^7 cells/ml, P. gingivalis: 4×10^8 cells/ml, T. forsythia: 2×10^8 cells/ml).
(§4) The prepared well plate was incubated at 37° C. under anaerobic condition (10% H2, 10% CO2 and 80% N2) for 48 hours for the culture of bacteria. The biofilm formed on the glass slip by the bacteria cultured in each group was quantitatively and comparatively analyzed using the following techniques.
The glass slip whereon biofilm had been formed was stained by using a live/dead-BacLight bacterial viability kit (Invitrogen, Grand Island, N.Y., USA), and the morphology of the biofilm was observed under a confocal scanning laser microscope and compared.

P. gingivalis biofilm = experiment: Inhibition of biofilm formation, crystal violet staining (OD595); type: cell-based; details: 2000 nM, 200 nM and 20 nM; FIG. 21
Description: (§5) Particularly, a sterilized cover glass slip (round shape with a radius of 12 mm) was placed on each well of a cell culture plate (24 well plate) by using a pincette. F. nucleatum A1-2 was added to cell culture medium (BHI medium+supplements) at the volume of 10% by the total volume. The compounds of examples of the present invention were diluted to make the final concentration of each compound of 2 μM, 0.2 μM and 0.02 μM (BH1 medium: Brain Heart Infusion Medium, supplements: hemin (10 μg/ml) and vitamin K (0.2 μg/ml)). The prepared culture solution was added to each well of the plate where the glass slip was placed, and the desired number of bacteria was inoculated into each well (F. nucleatum: 2×10^7 cells/ml, P. gingivalis: 4×10^8 cells/ml, T. forsythia: 2×10^8 cells/ml). For the positive control not treated with the compounds of examples of the present invention (F.n AI-2), F. nucleatum AI-2 was added to the cell culture medium (BHI+supplements) and then the same number of cells was inoculated. In the meantime, for the negative control treated neither the compound of the present invention nor F. nucleatum A1-2 (Fn), PBS was added to the cell culture medium (BHI+supplements) instead of F. nucleatum A1-2 at the same volume as the above. The prepared well plate was incubated at 37° C. under anaerobic condition (10% H2, 10% CO2 and 80% N2) for 48 hours for the culture of bacteria. The biofilm formed on the glass slip by the bacteria cultured in each group was quantitatively and comparatively analyzed using the following techniques. […] 200 μl of the decolorizing solution containing crystal violet was added to each well of the microplate, and OD595 was measured using a microplate reader (Microplate reader, Model 550, Bio-Rad, USA). The measured values were compared among the groups (As the biofilm formation increased by the molecules secreted by F. nucleatum was suppressed by the compound of the present invention, the measured value was decreased.).

F. nucleatum biofilm = experiment: as above; type: cell-based; details: 20 nM; compared with furanone treated control group; FIG. 20
Description: as §5

[2] = tested on: biofilm formation of bacteria; experiment: Evaluation of inhibition of biofilm formation (overall statements); type: cell-based; details: FIG. 20 to FIG. 21; 2000 nM, 200 nM and 20 nM
Description: as §1, §2, §3, §4
The glass slip whereon biofilm had been formed was stained with 1% crystal violet solution for 10 minutes, followed by washing with PBS (phosphate buffered saline) three times, and decolorized with acetone-alcohol.
200 μl of the decolorizing solution containing crystal violet was added to each well of the microplate, and OD595 was measured using a microplate reader (Microplate reader, Model 550, Bio-Rad, USA). The measured values were compared among the groups (As the biofilm formation increased by the molecules secreted by F. nucleatum was suppressed by the compound of the present invention, the measured value was decreased.).

[3] = tested on: IL-6 and IL-8 genes in THP-1 cells; experiment: Effect on host cell immunity: IL-6 and IL-8 gene expression by real-time RT-PCR in THP-1 cells; type: cell-based, human
Description: (§6) To evaluate the effect of the compounds of the present invention on host cell (normal cell) immunity, the host cells were treated with the compounds of the present invention, followed by investigation of the activity of proinflammatory cytokines in host cells.
(§7) Particularly, in order to investigate whether or not the compounds of the present invention were able to induce inflammatory responses in host cells, the expression levels of proinflammatory cytokines including interleukin (IL)-6 and IL-8 were measured by real-time RT-PCR. THP-1 cells (1×10^6 cells/well) and HGF cells (2×10^5 cells/well) were distributed in a 6 well plate, followed by culture in the presence or absence of the compounds of examples (5, 6 and 13) or lipopolysaccharide (LPS, 1 mg) known as an endotoxin of Gram negative bacteria that causes a strong immune response in host cells at 37° C. for 24 hours. Upon completion of the 24 hour culture, RNA was extracted from the THP-1 and HGF cells by using Easy-Blue total RNA extraction kit (iNtRON Biotechnology, Seongnam, Korea) according to the manufacturer's protocol. A cDNA sample ([…]) synthesized from the extracted RNA ([…]) using MMLV reverse transcription kit (Promega, Madison, Wis.) was added to each primer pair (10 pM) and Power SYBR Green Master Mix (Applied Biosystems, Warrington, UK) at the reaction volume of […]. The mixture was applied to ABI PRISM 7500 Fast Real-Time PCR system (Applied Biosystems, Foster City, Calif., USA) by using thermocycling (thermocycling: denaturation at 95° C. for 15 seconds, annealing and extension at 60° C. for 1 minute). Glyceraldehyde 3-phosphate dehydrogenase (GAPDH) gene was used as a reference gene to normalize the gene expression levels of inflammatory cytokines including interleukin 6 (IL-6) and interleukin 8 (IL-8).

[4] = tested on: IL-6 and IL-8 genes in HGF cells; experiment: Effect on host cell immunity: IL-6 and IL-8 gene expression by real-time RT-PCR in HGF cells; type: cell-based, human
Description: as §6, §7

Compound	biofilm inhibitory activity (general statement) [2]	induction of IL-6 and IL-8 gene expression (inflammatory response) in THP-1 cells [3]	induction of IL-6 and IL-8 gene expression (inflammatory response) in HGF cells ([4]; human, 24 h)	further results
O=C1OC(=C(Br)Br)c2ccccc21 [Example 2, 3-(dibromomethylene)isobenzofuran-1(3H)-one]	–	–	–	inhibition of biofilm formation seen in confocal photographs [1]: inhibited the biofilm formation of bacteria
O=C1OC(=C(Br)Br)C2=C1CCCC2 [Example 3, 3-(dibromomethylene)-4,5,6,7-tetrahydroisobenzofuran-1(3H)-one]	–	–	–	P. gingivalis biofilm inhibitory activity (OD595) (P. gingivalis biofilm): excellent P. gingivalis biofilm inhibitory activity
O=C1OC(=C(Br)Br)C2=C1CCC2 [Example 4, 3-(dibromomethylene)-5,6-dihydro-3H-cyclopenta[c]furan-1(4H)-one]	–	–	–	inhibition of biofilm formation seen in confocal photographs [1]: inhibited the biofilm formation of bacteria; F. nucleatum biofilm inhibitory activity (OD595) (F. nucleatum biofilm): superior F. nucleatum biofilm inhibitory activity at the concentration of 20 nM to the furanone treated control group
O=C1OC(=C(Br)Br)C2CCCC12 (stereo not shown) [Example 5, 3-(dibromomethylene)-hexahydrocyclopenta[c]furan-1(3H)-one]	particularly excellent in inhibiting biofilm formation	not to induce inflammatory responses	did not induce the expressions of IL-6 and IL-8 genes	F. nucleatum biofilm inhibitory activity (OD595) (F. nucleatum biofilm): superior F. nucleatum biofilm inhibitory activity at the concentration of 20 nM to the furanone treated control group
Cc1ccc2c(c1)C(=C(Br)Br)OC2=O [Example 6, 3-(dibromomethylene)-5-methylisobenzofuran-1(3H)-one]	particularly excellent in inhibiting biofilm formation	not to induce inflammatory responses	did not induce the expressions of IL-6 and IL-8 genes	–
Cc1cccc2c1C(=O)OC2=C(Br)Br [Example 13, 3-(dibromomethylene)-7-methylisobenzofuran-1(3H)-one]	particularly excellent in inhibiting biofilm formation	not to induce inflammatory responses	did not induce the expressions of IL-6 and IL-8 genes	–
lipopolysaccharide [LPS, reference compound]	–	–	–	induction of IL-6 and IL-8 gene expression (inflammatory response) in THP-1 cells ([3]; 24 hours, normalised to GAPDH, FIG. 26): induced the expressions of IL-6 and IL-8 genes; induction of IL-6 and IL-8 gene expression (inflammatory response) in HGF cells ([4]; 24 hours, normalised to GAPDH, FIG. 27): induced the expressions of both cytokines
